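Exposure lasted 48 hours, with cells grown in 96-well plates and compounds tested at five concentrations. The concentration for full growth arrest is given as TGI.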 Some results are limits rather than exact numbers.

Common to all, as to assay: NCI tumour cell line growth inhibition, 48 h
Test [1] deals with A498 renal.
The test system of test [2] is HL-60(TB) leukemia.
Test [3] concerns LOX IMVI melanoma.
Test [4] concerns MALME-3M melanoma.
The test system of test [5] is NCI/ADR-RES ovarian.
Test [6] relates to OVCAR-3 ovarian.
In test [7] the test system is SF-295 CNS.
In test [8] the test system is SK-MEL-5 melanoma.
The test system of test [9] is SK-OV-3 ovarian.
For test [10], the system named is SN12C renal.
Test [11] deals with T-47D breast.
For test [12], the system named is TK-10 renal.
In test [13] the test system is UACC-257 melanoma.

As to `NC1N=C(c2ccc(Cl)cc2)C2=C(N1)c1ccccc1CC2` (stereo unspecified), the TGI in test [1] was > 100 µM; in [2] it was 10.6 µM; in test [3], > 50.9 µM; in test [4] it was > 100 µM; in [5] it was > 100 µM; in test [6], > 100 µM. Further, the TGI was > 100 µM in test [7]; > 56.3 µM in test [8]; > 100 µM in [9]; > 100 µM in [10]; > 100 µM in test [11]; > 100 µM in test [12]. In addition, the TGI in [13] was > 100 µM.

Regarding `O=c1ccc2ccc(OP(=O)(O)O)cc2o1`, the TGI in test [1], in test [2], in [3], in test [4], in test [5] and in test [6] was > 100 µM throughout. In addition, the TGI in test [7], in [8], in [9], in test [10], in test [11] and in [12] was > 100 µM each time. Besides, the TGI in test [13] was > 100 µM.

(Values after PubChem BioAssay (NCI).)
